Measured values: US20250186403A1 (ARIZONA BOARD OF REGENTS ON BEHALF OF THE UNIVERSITY OF …, priority 2022, published 2025)
Values belong to the compound of their own block, whether it stands above or below them.

Experiments:
Cne cells = assay: Checkerboard assay with known antifungals; assay type: cell-based, Cryptococcus neoformans; conditions: for MIC: Cryptococcus neoformans, read-out: MIC Alone
Procedure: After adding Cne cells, the plates were incubated for 48 h. Well contents were mixed by pipette, and absorbance was read at 630 nm. […] Based on the FIC, the combinatorial effects are decided as in Table 2.

[1] = molecular target: Split-NanoLuc-Prp8 intein protein (Cryptococcus gattii, UniProt E6R027); assay: Split nanoluciferase-Prp8 intein splicing assay; assay type: biochemical; conditions: 1 nM protein, 100 µM TCEP, 24 h; read-out: IC50, Prp8-NanoBit splicing
Procedure: TCEP is added to a final concentration of 100 µM and incubated for 24 h. The substrate Nano-Glo luciferase (Promega) was added, and the resulting luminescence was read. IC50 was calculated using GraphPad prism.
For the split nanoluciferase-Prp8 intein, in order to block the free cysteine residues, 5,5′-dithiobis-(2-nitrobenzoic) acid (DTNB) was added to 1:10 molar ratio and incubated at 4° C. for 5 min and dialyzed in 20 mM Tris, 150 mM NaCl, pH 9.0 and stored at −80° C. till further use.
The protein was diluted into 2 nM in assay buffer 20 mM tris, 150 mM NaCl with 0.1% BSA, 2 mM EDTA), and 80 μl was added to each well of 96 well plates (white, opaque). […] The plates were incubated at RT for 30 min, and 20 μl of TCEP was added to a final concentration of 100 µM. The plates were sealed to prevent evaporation. After incubating for 24 h at RT, 25 μl of the diluted (1:10,000 in assay buffer) diluted nanoluc substrate furimazine (Promega) was added. The emitted luminescence was quantified using the EnVision luminescence reader (Synergyll, Biotech). The IC50 was calculated using the GraphPad prism version 9.

[2] = single drug, ≥90% reduction of absorbance at 630 nm, 48 h

Split-NanoLuc-Prp8 intein protein, sequence (E6R027 entry or part of it): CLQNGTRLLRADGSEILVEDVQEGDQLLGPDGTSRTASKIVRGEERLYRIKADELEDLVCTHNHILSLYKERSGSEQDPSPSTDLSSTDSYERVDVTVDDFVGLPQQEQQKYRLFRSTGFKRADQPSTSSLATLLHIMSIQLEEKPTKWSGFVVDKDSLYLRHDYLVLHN

SMILES: Nc1nc(=O)[nH]cc1F [5-Fluorocytosine]
MIC (Cne cells; [2]): 4.13 µg/mL | MIC Comb (Cne cells; combination CMN + 5-Fluorocytosine, well D2): 2.06 µg/mL

SMILES: C[C@@H]1[C@H](O)[C@@H](C)/C=C/C=C/C=C/C=C/C=C/C=C/C=C/[C@H](O[C@@H]2O[C@H](C)[C@@H](O)[C@H](N)[C@@H]2O)C[C@@H]2O[C@](O)(C[C@@H](O)C[C@@H](O)[C@H](O)CC[C@@H](O)C[C@@H](O)CC(=O)O[C@H]1C)C[C@H](O)[C@H]2C(=O)O [Amphotericin B]
MIC Comb (Cne cells; combination CMN + Amphotericin B, well E6): 0.14 µg/mL | MIC Alone (Cne cells; [2]): 0.6 µg/mL

SMILES: N.N.[Cl][Pt][Cl] [cisplatin]
IC50 [1]: 1410 nM

Continued, values first:

MIC (Cne cells; [2]): 0.22 µg/mL | MIC Comb (Cne cells; combination CMN + Itraconazole, well E4): 0.22 µg/mL
SMILES: CCC(C)n1ncn(-c2ccc(N3CCN(c4ccc(OCC5COC(Cn6cncn6)(c6ccc(Cl)cc6Cl)O5)cc4)CC3)cc2)c1=O (stereo not drawn) [Itraconazole]

MIC (Cne cells; [2]): 0.05 µg/mL | MIC Comb (Cne cells; combination CMN + Voriconazole, well D4): 0.05 µg/mL
SMILES: C[C@@H](c1ncncc1F)[C@](O)(Cn1cncn1)c1ccc(F)cc1F [Voriconazole]
